Source: patent US11986532B2 (Arvinas Operations, Inc., priority 2021, dated 2024)
Like-named read-outs stand apart in the source and are kept apart here.

Biological target: T1, BCL6 (Homo sapiens, UniProt P41182)
T1 construct: endogenous in cells; host or cells: T47D breast cancer epithelial cells
Assay: Immunofluorescence protocol for high content imaging of BCL6 (degradation) in T47D cells, 3 days compound treatment
Type: cell-based
Details: for DC50: read-out: Mean DC50 (nM)* category; for Dmax: read-out: Mean Dmax (%)** category
In short: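 Read-out: high-content imaging of anti-BCL6 immunofluorescence (Alexa-488 secondary) with CellMask and Hoechst counterstains, 10×, 4 fields/well. Cells had 3 days of compound exposure at 37° C, 5% CO2, 11-point 3-fold series from a final top of 0.1 or 1 μM.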

[1] = T47D cells, 3 days compound treatment

| DC50 | Dmax (T47D) | DC50 [1] | Dmax [1] | Structure (SMILES) |
| --- | --- | --- | --- | --- |
| < 10 nM | – | – | – | CNC(=O)COc1cc2cc(Nc3cc(N4CCC(CN5CCC6(CN(c7ccc8c(c7OC)CN(C7CCC(=O)NC7=O)C8=O)C6)C(F)(F)C5)CC4)ncc3Cl)ccc2n(C(C)C)c1=O (stereo not shown) [Compound 232, 2-{[6-({5-chloro-2-[4-({2-[2-(2,6-dioxopiperidin-3-yl)-4-methoxy-1-oxo-2,3-dihydro-1H-isoindol-5-yl]-5,5-difluoro-2,7-diazaspiro[3.5]nonan-7-yl}methyl)piperidin-1-yl]pyridin-4-yl}amino)-2-oxo-1-(propan-2-yl)-1,2-dihydroquinolin-3-yl]oxy}-N-methylacetamide] |
| < 10 nM | 50 to 70% | – | – | CNC(=O)COc1cc2cc(Nc3nc(N4CCC(CN5CCC6(CC5)CN(c5ccc7c(c5C)C(=O)N(C5CCC(=O)NC5=O)C7=O)C6)CC4)ncc3Cl)ccc2n(C(C)C)c1=O (stereo not shown) [Compound 358, 2-{[6-({5-chloro-2-[4-({2-[2-(2,6-dioxopiperidin-3-yl)-4-methyl-1,3-dioxo-2,3-dihydro-1H-isoindol-5-yl]-2,7-diazaspiro[3.5]nonan-7-yl}methyl)piperidin-1-yl]pyrimidin-4-yl}amino)-2-oxo-1-(propan-2-yl)-1,2-dihydroquinolin-3-yl]oxy}-N-methylacetamide] |
| – | – | < 10 nM | ≥ 70% | CNC(=O)COc1cc2cc(Nc3nc(N4CCC5(CC4)CC(CN4CCN(c6cccc7c6CN(C6CCC(=O)NC6=O)C7=O)CC4)C5)ncc3Cl)ccc2n(C(C)C)c1=O (stereo not shown) [Compound 14, 2-{[6-({5-chloro-2-[2-({4-[2-(2,6-dioxopiperidin-3-yl)-1-oxo-2,3-dihydro-1H-isoindol-4-yl]piperazin-1-yl}methyl)-7-azaspiro[3.5]nonan-7-yl]pyrimidin-4-yl}amino)-2-oxo-1-(propan-2-yl)-1,2-dihydroquinolin-3-yl]oxy}-N-methylacetamide] |
| < 10 nM | ≥ 70% | – | – | CNC(=O)COc1cc2c(F)c(Nc3nc(N4CCC(CN5CCC6(CN(c7ccc8c(c7F)CN(C7CCC(=O)NC7=O)C8=O)C6)C(F)(F)C5)CC4)ncc3Cl)ccc2n(C(C)C)c1=O (stereo not shown) [Compound 376, 2-{[6-({5-chloro-2-[4-({2-[2-(2,6-dioxopiperidin-3-yl)-4-fluoro-1-oxo-2,3-dihydro-1H-isoindol-5-yl]-5,5-difluoro-2,7-diazaspiro[3.5]nonan-7-yl}methyl)piperidin-1-yl]pyrimidin-4-yl}amino)-5-fluoro-2-oxo-1-(propan-2-yl)-1,2-dihydroquinolin-3-yl]oxy}-N-methylacetamide] |
| – | – | < 10 nM | 50 to 70% | CNC(=O)COc1cc2cc(Nc3nc(N4CCN(CC5(F)CCN(c6cccc7c6CN(C6CCC(=O)NC6=O)C7=O)CC5)CC4)ncc3Cl)ccc2n(C(C)C)c1=O (stereo not shown) [Compound 114, 2-{[6-({5-chloro-2-[4-({1-[2-(2,6-dioxopiperidin-3-yl)-1-oxo-2,3-dihydro-1H-isoindol-4-yl]-4-fluoropiperidin-4-yl}methyl)piperazin-1-yl]pyrimidin-4-yl}amino)-2-oxo-1-(propan-2-yl)-1,2-dihydroquinolin-3-yl]oxy}-N-methylacetamide] |
| < 10 nM | ≥ 70% | – | – | CNC(=O)COc1cc2cc(Nc3nc(N4CCN(C[C@H]5C[C@H](N6CCN(c7ccc8c(c7)CN(C7CCC(=O)NC7=O)C8=O)CC6)C5)CC4)ncc3Cl)ccc2n(C(C)C)c1=O (stereo partly shown) [Compound 342, 2-[(6-{[5-chloro-2-(4-{[(1r,3r)-3-{4-[2-(2,6-dioxopiperidin-3-yl)-1-oxo-2,3-dihydro-1H-isoindol-5-yl]piperazin-1-yl}cyclobutyl]methyl}piperazin-1-yl)pyrimidin-4-yl]amino}-2-oxo-1-(propan-2-yl)-1,2-dihydroquinolin-3-yl)oxy]-N-methylacetamide] |
| < 10 nM | 50 to 70% | – | – | CNC(=O)COc1cc2cc(Nc3nc(N4CCC(CN5CCC6(CC5)CN(c5ccc7c(c5C(C)C)CN(C5CCC(=O)NC5=O)C7=O)C6)CC4)ncc3Cl)ccc2n(C(C)C)c1=O (stereo not shown) [Compound 272, 2-{[6-({5-chloro-2-[4-({2-[2-(2,6-dioxopiperidin-3-yl)-1-oxo-4-(propan-2-yl)-2,3-dihydro-1H-isoindol-5-yl]-2,7-diazaspiro[3.5]nonan-7-yl}methyl)piperidin-1-yl]pyrimidin-4-yl}amino)-2-oxo-1-(propan-2-yl)-1,2-dihydroquinolin-3-yl]oxy}-N-methylacetamide] |
| < 10 nM | 50 to 70% | – | – | CNC(=O)COc1cc2cc(Nc3nc(N4CCN(CC5CCC6(CC5)CN(c5cc(F)cc7c5CN(C5CCC(=O)NC5=O)C7=O)C6)CC4)ncc3Cl)ccc2n(C(C)C)c1=O (stereo not shown) [Compound 315, 2-{[6-({5-chloro-2-[4-({2-[2-(2,6-dioxopiperidin-3-yl)-6-fluoro-1-oxo-2,3-dihydro-1H-isoindol-4-yl]-2-azaspiro[3.5]nonan-7-yl}methyl)piperazin-1-yl]pyrimidin-4-yl}amino)-2-oxo-1-(propan-2-yl)-1,2-dihydroquinolin-3-yl]oxy}-N-methylacetamide] |
| < 10 nM | ≥ 70% | – | – | CNC(=O)COc1cc2c(F)c(Nc3nc(N4CCC(CN5CCC6(CC5)CN(c5ccc7c(c5)C(=O)N(C5CCC(=O)NC5=O)C7=O)C6(C)C)CC4)ncc3Cl)ccc2n(C(C)C)c1=O (stereo not shown) [Compound 375, 2-{[6-({5-chloro-2-[4-({2-[2-(2,6-dioxopiperidin-3-yl)-1,3-dioxo-2,3-dihydro-1H-isoindol-5-yl]-1,1-dimethyl-2,7-diazaspiro[3.5]nonan-7-yl}methyl)piperidin-1-yl]pyrimidin-4-yl}amino)-5-fluoro-2-oxo-1-(propan-2-yl)-1,2-dihydroquinolin-3-yl]oxy}-N-methylacetamide] |
| < 10 nM | ≥ 70% | – | – | CNC(=O)COc1cc2cc(Nc3nc(N4CCC(O[C@H]5C[C@H](N6CC=C(c7ccc8c(c7Cl)CN([C@H]7CCC(=O)NC7=O)C8=O)CC6)C5)CC4)ncc3Cl)ccc2n(C(C)C)c1=O [Compound 428] |

| Structure (SMILES) | DC50 | Dmax (T47D) | DC50 [1] | Dmax [1] |
| --- | --- | --- | --- | --- |
| CNC(=O)COc1cc2cc(Nc3nc(N4CCC(O[C@H]5C[C@H](N6CC[C@H](c7ccc8c(c7F)CN(C7CCC(=O)NC7=O)C8=O)[C@H](OC)C6)C5)CC4)ncc3Cl)ccc2n(C(C)C)c1=O (stereo partly drawn) [Compound 279, 2-({6-[(5-chloro-2-{4-[(1r,3r)-3-[(3S,4R)-4-[2-(2,6-dioxopiperidin-3-yl)-4-fluoro-1-oxo-2,3-dihydro-1H-isoindol-5-yl]-3-methoxypiperidin-1-yl]cyclobutoxy]piperidin-1-yl}pyrimidin-4-yl)amino]-2-oxo-1-(propan-2-yl)-1,2-dihydroquinolin-3-yl}oxy)-N-methylacetamide] | < 10 nM | ≥ 70% | – | – |
| CNC(=O)COc1cc2cc(Nc3nc(N4CCC(O[C@H]5C[C@H](N6CCCC7(CCN(c8ccc9c(c8F)CN(C8CCC(=O)NC8=O)C9=O)C7)C6)C5)CC4)ncc3Cl)ccc2n(C(C)C)c1=O (stereo partly shown) [Compound 401, 2-({6-[(5-chloro-2-{4-[(1r,3r)-3-{2-[2-(2,6-dioxopiperidin-3-yl)-4-fluoro-1-oxo-2,3-dihydro-1H-isoindol-5-yl]-2,7-diazaspiro[4.5]decan-7-yl}cyclobutoxy]piperidin-1-yl}pyrimidin-4-yl)amino]-2-oxo-1-(propan-2-yl)-1,2-dihydroquinolin-3-yl}oxy)-N-methylacetamide] | < 10 nM | ≥ 70% | – | – |
| CNC(=O)COc1cc2cc(Nc3nc(N4CCC(O[C@H]5C[C@H](N6CCC(c7c(C)cc8c(c7F)CN(C7CCC(=O)NC7=O)C8=O)CC6)C5)CC4)ncc3Cl)ccc2n(C(C)C)c1=O (stereo partly shown) [Compound 397, 2-({6-[(5-chloro-2-{4-[(1r,3r)-3-{4-[2-(2,6-dioxopiperidin-3-yl)-4-fluoro-6-methyl-1-oxo-2,3-dihydro-1H-isoindol-5-yl]piperidin-1-yl}cyclobutoxy]piperidin-1-yl}pyrimidin-4-yl)amino]-2-oxo-1-(propan-2-yl)-1,2-dihydroquinolin-3-yl}oxy)-N-methylacetamide] | < 10 nM | ≥ 70% | – | – |
| CNC(=O)COc1cc2cc(Nc3nc(N4CCC(O[C@H]5C[C@H](N6CCC7(CN(c8ccc9c(c8)CN(C8CCC(=O)NC8=O)C9=O)C7)C6)C5)CC4)ncc3Cl)ccc2n(C(C)C)c1=O (stereo partly shown) [Compound 344, 2-({6-[(5-chloro-2-{4-[(1r,3r)-3-{2-[2-(2,6-dioxopiperidin-3-yl)-1-oxo-2,3-dihydro-1H-isoindol-5-yl]-2,6-diazaspiro [3.4]octan-6-yl}cyclobutoxy]piperidin-1-yl}pyrimidin-4-yl)amino]-2-oxo-1-(propan-2-yl)-1,2-dihydroquinolin-3-yl}oxy)-N-methylacetamide] | < 10 nM | < 50% | – | – |
| CNC(=O)COc1cc2cc(Nc3nc(N4CCC(O[C@H]5C[C@H](N6CCC(c7ccc8c(c7C)C(=O)N(C7CCC(=O)NC7=O)C8=O)CC6)C5)CC4)ncc3Cl)ccc2n(C(C)C)c1=O (stereo partly shown) [Compound 167, 2-({6-[(5-chloro-2-{4-[(1r,3r)-3-{4-[2-(2,6-dioxopiperidin-3-yl)-4-methyl-1,3-dioxo-2,3-dihydro-1H-isoindol-5-yl]piperidin-1-yl}cyclobutoxy]piperidin-1-yl}pyrimidin-4-yl)amino]-2-oxo-1-(propan-2-yl)-1,2-dihydroquinolin-3-yl}oxy)-N-methylacetamide] | – | – | < 10 nM | ≥ 70% |
| CNC(=O)COc1cc2cc(Nc3nc(N4CCC(O[C@H]5C[C@H](N6CCC(c7ccc8c(c7)C(=O)N(C7CCC(=O)NC7=O)C8=O)C6)C5)CC4)ncc3Cl)ccc2n(C(C)C)c1=O (stereo partly shown) [Compound 256, 2-({6-[(5-chloro-2-{4-[(1r,3r)-3-{3-[2-(2,6-dioxopiperidin-3-yl)-1,3-dioxo-2,3-dihydro-1H-isoindol-5-yl]pyrrolidin-1-yl}cyclobutoxy]piperidin-1-yl}pyrimidin-4-yl)amino]-2-oxo-1-(propan-2-yl)-1,2-dihydroquinolin-3-yl}oxy)-N-methylacetamide] | 10 to 50 nM | 50 to 70% | – | – |
